For one data set, the target named is T1, AOC3 (Homo sapiens, UniProt Q16853).
T1 construct: expressed in transfected cells; host or cells: CHO cells
T1 sequence (Q16853 1-763): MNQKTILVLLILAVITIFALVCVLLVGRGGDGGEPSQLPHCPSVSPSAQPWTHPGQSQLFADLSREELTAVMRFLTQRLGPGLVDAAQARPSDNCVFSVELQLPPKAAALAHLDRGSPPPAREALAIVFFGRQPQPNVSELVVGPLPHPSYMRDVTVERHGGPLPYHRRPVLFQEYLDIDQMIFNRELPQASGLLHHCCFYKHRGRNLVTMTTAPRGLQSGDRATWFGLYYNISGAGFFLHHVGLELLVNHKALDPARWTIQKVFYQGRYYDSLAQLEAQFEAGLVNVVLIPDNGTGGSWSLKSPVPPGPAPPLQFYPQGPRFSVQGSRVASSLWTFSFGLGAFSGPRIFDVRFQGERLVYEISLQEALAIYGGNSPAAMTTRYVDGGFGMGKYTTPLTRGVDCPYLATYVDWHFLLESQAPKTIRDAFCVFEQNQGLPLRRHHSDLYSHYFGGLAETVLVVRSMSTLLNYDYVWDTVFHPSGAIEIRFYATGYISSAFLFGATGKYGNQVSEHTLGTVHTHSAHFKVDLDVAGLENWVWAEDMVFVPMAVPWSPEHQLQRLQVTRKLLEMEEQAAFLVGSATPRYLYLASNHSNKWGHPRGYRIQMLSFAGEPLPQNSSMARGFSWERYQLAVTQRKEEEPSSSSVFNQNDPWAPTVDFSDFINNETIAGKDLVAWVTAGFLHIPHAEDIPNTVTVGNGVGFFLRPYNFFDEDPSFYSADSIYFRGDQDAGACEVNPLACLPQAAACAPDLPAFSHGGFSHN
Kind of data set: AOC3 biochemical assay (MAO-Glo). Conditions: Table 1; read-out: AOC3 IC50. The protocol:
As substrate a derivate of the beetle luciferin ((4S)-4,5-dihydro-2-(6-hydroxybenzothiazolyl)-4-thiazole-carboxylic acid) is used, which is oxidized at a primary amine moiety. After a spontaneous elimination and a catalyzed esterase reaction, the turnover of the luciferine by the luciferase is recorded as a signal of AOC3 activity.
Recombinant CHO cells, overexpressing the human (1500 cells/well), mouse (1000 cells/well) or rat (500 cells/well) AOC3 enzyme are diluted in reaction buffer and added in a volume of 15 μL to the wells. After incubation for 20 minutes at 37° C., 2 μL of MAO substrate (dissolved in DMSO at 16 mM, adjusted to assay concentration in reaction buffer to a final assay concentration of 20 μM) is added and further incubated for 60 minutes at 37° C. The turnover of the substrate is determined by the addition of 20 μL of the detection-mix which was generated by the addition of reconstitution buffer with esterase (PROMEGA, #V1402) to the luciferine detection reagent (PROMEGA, #V1402).

The next data set has as its target T2, AOC1 (Homo sapiens, UniProt P19801).
T2 construct: purchased R&D Systems 8297-AO-010
T2 sequence (P19801 20-751): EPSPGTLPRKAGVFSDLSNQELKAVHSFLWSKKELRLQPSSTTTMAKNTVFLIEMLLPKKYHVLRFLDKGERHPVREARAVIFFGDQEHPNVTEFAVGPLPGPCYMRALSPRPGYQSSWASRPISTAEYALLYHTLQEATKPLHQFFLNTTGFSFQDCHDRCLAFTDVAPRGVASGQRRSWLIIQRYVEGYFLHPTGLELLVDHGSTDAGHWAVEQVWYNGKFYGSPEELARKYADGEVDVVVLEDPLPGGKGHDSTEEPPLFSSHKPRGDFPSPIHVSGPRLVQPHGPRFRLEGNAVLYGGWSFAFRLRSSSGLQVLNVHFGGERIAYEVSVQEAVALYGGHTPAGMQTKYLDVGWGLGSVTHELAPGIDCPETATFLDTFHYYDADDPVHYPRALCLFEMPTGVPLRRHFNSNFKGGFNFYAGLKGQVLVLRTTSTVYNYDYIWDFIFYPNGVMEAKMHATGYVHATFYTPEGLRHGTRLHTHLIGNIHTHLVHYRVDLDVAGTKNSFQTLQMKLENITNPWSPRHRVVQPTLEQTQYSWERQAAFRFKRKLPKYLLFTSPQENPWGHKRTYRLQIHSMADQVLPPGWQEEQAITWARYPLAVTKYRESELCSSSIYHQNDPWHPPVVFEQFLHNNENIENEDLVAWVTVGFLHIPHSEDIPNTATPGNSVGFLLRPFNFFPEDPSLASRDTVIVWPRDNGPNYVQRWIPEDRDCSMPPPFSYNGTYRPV
Put plainly: AOC1 biochemical assay (Amplex Red). Conditions: Table 1; read-out: AOC1 IC50. The source says:
The Amplex® Red Assay (available from Thermo Fisher Scientific) provides a sensitive method for the detection of H2O2 generated during enzymatic reactions like the amine oxidation catalyzed by AOC1.

A further data set has as its system pigs. Conditions: aminoguanidine 100 mg/kg and gavage of histamine 2 mg/kg; cited from earlier work.

pIC50: −log10 of the molar value.

For orientation: pIC50 means −log10 of the IC50, conventionally taken in molar units. As usually defined, the melting point is the temperature of the solid-liquid transition.

As to `COCCN(C)c1ncc(-c2cccc(COC(=O)NC(=N)N)n2)cn1` [Example 16], the pIC50 was 8.05 on AOC3 and 6.14 on AOC1.

Turning to `N=C(N)NC(=O)OCc1cccc(-c2cnc(OCC3(F)CC3)nc2)n1` [Example 17, [6-[2-[(1-fluorocyclopropyl)methoxy]pyrimidin-5-yl]-2-pyridyl]-methyl N-carbamimidoylcarbamate], the negative-log IC50 (pIC50) at AOC3 was 8.30; at AOC1 it was 5.44.

For the molecule `CC(F)(F)COc1ccc(-c2cccc(COC(=O)NC(=N)N)n2)cn1` [Example 18], the pIC50 was 8.52 at AOC3 and 5.85 at AOC1.

In turn, `CC(F)(F)COc1ncc(-c2cccc(COC(=O)NC(=N)N)n2)cn1` [Example 20, [6-[2-(2,2-difluoropropoxy)pyrimidin-5-yl]-2-pyridyl]methyl N-carbamimidoylcarbamate] displayed a melting point of 195 °C. Also, on AOC3, the pIC50 is 8.30. At AOC1, the pIC50 was 5.14.

In the case of `N#CC1(COc2ncc(-c3cccc(COC(=O)NC(=N)N)n3)cn2)CC1` [Example 21], the negative logarithm of the IC50 (pIC50) was 8.40 on AOC3 and 5.50 at AOC1.

Consider `N=C(N)NC(=O)OCc1cccc(-c2ccc(OCc3ccon3)nc2)n1` [Example 23], for which the values for the negative-log IC50 (pIC50) on AOC3 and on AOC1 were 8.70 and 5.42, respectively.

The molecule `N=C(N)NC(=O)OCc1cccc(-c2cnc(OCc3ccon3)nc2)n1` [Example 24, [6-[2-(isoxazol-3-ylmethoxy)pyrimidin-5-yl]-2-pyridyl]methyl N-carbamimidoylcarbamate] registered a melting point of 183 °C. For the same molecule, the pIC50 at AOC3 was 8.40. Besides, the pIC50 at AOC1 was 5.80.

Take `CN(c1ncc(-c2cccc(COC(=O)NC(=N)N)n2)cn1)C1CCOC1` (centres unmarked) [Example 25]: the negative-log IC50 (pIC50) on AOC3 is 8.52; at AOC1, 6.32.

In turn, `N=C(N)NC(=O)OCc1cccc(-c2cnc(OC[C@H]3CC3(F)F)nc2)n1` [Example 26, [6-[2-[[(1R)-2,2-difluorocyclopropyl]methoxy]pyrimidin-5-yl]-2-pyridyl]methyl N-carbamimidoylcarbamate] showed a melting point of 193 to 196 °C. At AOC3, the negative-log IC50 (pIC50) is 8.52. On AOC1, the pIC50 was 5.60.

`N#CC1(COc2ncc(-c3cccc(COC(=O)NC(=N)N)n3)cn2)CCC1` [Example 27]: the results for the negative logarithm of the IC50 (pIC50) at AOC3 and at AOC1 were 8.40 and 5.42, respectively.

On to `CC(Oc1ncc(-c2cccc(COC(=O)NC(=N)N)n2)cn1)c1ccon1` (centres unmarked) [Example 28], for which the negative logarithm of the IC50 (pIC50) on AOC3 was 7.82; at AOC1 it was 5.48.

Regarding `N=C(N)NC(=O)OCc1cccc(-c2cnc(OCc3cncs3)nc2)n1` [Example 29], the pIC50 at AOC3 was 8.70; on AOC1 it was 6.18.

With `N=C(N)NC(=O)OCc1cccc(-c2cnc(OCc3cscn3)nc2)n1` [Example 30], the pIC50 at AOC3 is 8.52; on AOC1, 6.01.

Regarding `N=C(N)NC(=O)OCc1cccc(-c2cnc(OCc3nccs3)nc2)n1` [Example 31], the pIC50 is 8.52 at AOC3 and 6.21 on AOC1.

As to `CN(c1ncc(-c2cccc(COC(=O)NC(=N)N)n2)cn1)C1CCOCC1` [Example 32], the negative-log IC50 (pIC50) was 8.70 at AOC3 and 6.15 on AOC1.

Consider `N=C(N)NC(=O)OCc1cccc(-c2cnc(OCC3CCOCC3)nc2)n1` [Example 33], for which the negative logarithm of the IC50 (pIC50) at AOC3 is 8.52; on AOC1, 6.05.

Regarding `N=C(N)NC(=O)OCc1cccc(-c2cnc(OCc3cnns3)nc2)n1` [Example 34], the pIC50 was 8.70 on AOC3 and 6.30 at AOC1.

Regarding `N=C(N)NC(=O)OCc1cccc(-c2cnc(OCc3csnn3)nc2)n1` [Example 35], the results for the pIC50 at AOC3 and at AOC1 were 8.52 and 5.99, respectively.

On to `N=C(N)NC(=O)OCc1cccc(-c2cnc(OCCCC(F)(F)F)nc2)n1` [Example 36, [6-[2-(4,4,4-trifluorobutoxy)pyrimidin-5-yl]-2-pyridyl]methyl N-carbamimidoylcarbamate], for which the melting point lay within 194 to 197 °C. The pIC50 at AOC3 was 8.30. Moreover, at AOC1, the pIC50 was 5.94.

For `CC(=O)N1CCC(COc2ncc(-c3cccc(COC(=O)NC(=N)N)n3)cn2)CC1` [Example 37], the pIC50 at AOC3 is 8.52; at AOC1 it was 6.64.

Consider `N=C(N)NC(=O)OCc1cccc(-c2cnc(OCC3CCN(C(=O)C4CC4)CC3)nc2)n1` [Example 38], for which the values for the negative-log IC50 (pIC50) on AOC3 and on AOC1 were 8.52 and 6.49, respectively.

As for `N=C(N)NN` [aminoguanidine], in the data set on pigs, the death was 3 out of 15.

The record behind these values is US9926292B2, “Pyridinyl derivatives, pharmaceutical compositions and uses thereof” (Boehringer Ingelheim International GmbH, priority 2016, dated 2018).
